Columns and labels:
[1] = 101 kPa, Liquid; for viscosity: Concentric cylinders viscometry; for speed of sound: Single path-length method; for mass density: Vibrating tube method
[2] = refractive index (Na D-line) (dimensionless); details: 101 kPa, Liquid, Standard Abbe refractometry
[3] = refractive index (Na D-line) (dimensionless); xn = mol fraction of the nth substance listed; details: 101 kPa, Liquid, Standard Abbe refractometry, x1 = 1
[4] = xn = mol fraction of the nth substance listed; details: 101 kPa, Liquid, x1 = 1; for viscosity: Concentric cylinders viscometry; for speed of sound: Single path-length method; for mass density: Vibrating tube method

CCCCCCCCCCCCCCCC [hexadecane]
Details	mass density, [1] [kg/m3]	refractive index, [2]	speed of sound, [1] [m/s]	viscosity, [1] [mPa·s]
298.15 K	769.87	1.4318	1338.5	3.035
303.15 K	766.4	1.4296	1319.8	2.708
308.15 K	762.95	1.4275	1301.3	2.432

CCCCCCCC/C=C\CCCCCCCC(=O)OCC [ethyl (Z)-9-octadeceneoate]
Details	mass density, [1] [kg/m3]	refractive index, [2]	speed of sound, [1] [m/s]	viscosity, [1] [mPa·s]
298.15 K	865.23	1.4481	1376.2	5.674
303.15 K	861.6	1.4461	1358.4	4.999
308.15 K	857.97	1.4441	1340.8	4.435

CCCO [propan-1-ol]
Details	mass density, [1] [kg/m3]	refractive index, [2]	speed of sound, [1] [m/s]	viscosity, [1] [mPa·s]
298.15 K	799.93	1.3831	1205.7	1.926
303.15 K	795.89	1.381	1188.6	1.716
308.15 K	791.82	1.3789	1171.6	1.532

CCCCO [butan-1-ol]
Details	mass density, [1] [kg/m3]	refractive index, [2]	speed of sound, [1] [m/s]	viscosity, [1] [mPa·s]
298.15 K	805.98	1.3979	1239.6	2.531
303.15 K	802.13	1.3959	1222.8	2.232
308.15 K	798.25	1.3938	1206	1.975

CCCCO [butan-1-ol] + CCCCCCCCCCCCCCCC
Details	mass density, [4] [kg/m3]	refractive index, [3]	speed of sound, [4] [m/s]	viscosity, [4] [mPa·s]
293.15 K	809.8	1.3999	1256.6	2.868
298.15 K	805.98	1.3979	1239.6	2.531
303.15 K	802.13	1.3959	1222.8	2.232
308.15 K	798.25	1.3938	1206	1.975
313.15 K	794.35	1.3918	1189.4	1.758
318.15 K	790.41	1.3897	1172.8	1.563
323.15 K	786.42	1.3876	1156.2	1.399
328.15 K	782.39	1.3855	1139.7	1.256
333.15 K	778.3	1.3833	1123.2	1.131
338.15 K	774.15	1.381	1106.6	1.021
343.15 K	769.94	1.3788	1090.1	0.925

CCCO [propan-1-ol] + CCCCCCCCCCCCCCCC
Details	mass density, [4] [kg/m3]	refractive index, [3]	speed of sound, [4] [m/s]	viscosity, [4] [mPa·s]
293.15 K	803.95	1.3852	1223	2.147
298.15 K	799.93	1.3831	1205.7	1.926
303.15 K	795.89	1.381	1188.6	1.716
308.15 K	791.82	1.3789	1171.6	1.532
313.15 K	787.71	1.3768	1154.7	1.379
318.15 K	783.56	1.3747	1137.9	1.234
323.15 K	779.36	1.3726	1121.1	1.112
328.15 K	775.1	1.3704	1104.3	1.004
333.15 K	770.78	1.3682	1087.5	0.9109
338.15 K	766.4	1.366	1070.6	0.8241
343.15 K	761.93	1.3635	1053.8	0.7468

CCCO [propan-1-ol] + CCCCCCCC/C=C\CCCCCCCC(=O)OCC
Details	mass density, [4] [kg/m3]	refractive index, [3]	speed of sound, [4] [m/s]	viscosity, [4] [mPa·s]
293.15 K	803.95	1.3852	1223	2.147
298.15 K	799.93	1.3831	1205.7	1.926
303.15 K	795.89	1.381	1188.6	1.716
308.15 K	791.82	1.3789	1171.6	1.532
313.15 K	787.71	1.3768	1154.7	1.379
318.15 K	783.56	1.3747	1137.9	1.234
323.15 K	779.36	1.3726	1121.1	1.112
328.15 K	775.1	1.3704	1104.3	1.004
333.15 K	770.78	1.3682	1087.5	0.9109
338.15 K	766.4	1.366	1070.6	0.8241
343.15 K	761.93	1.3635	1053.8	0.7468
